Experimental data as given in US20090053721A1, “VOLTAGE-GATED ION CHANNEL MUTANTS FOR USE IN IDENTIFYING ION CHANNEL MODULATING COMPOUNDS” (CARDIOME PHARMA CORP., priority 2007, published 2009).
Counter-ions that a name gives are not always drawn.

Key:
[1] = biological target: T1, Kv1.5 V512L mutant channel (Homo sapiens, UniProt P22460, V512L); test: Whole-cell patch-clamp block of mutant Kv1.5 current in HEK293 cells; format: cell-based; settings: 10 μM vernakalant
T1 construct: subcloned as a fragment back into full-length Kv1.5; expressed in transfected cells; host or cells: HEK293, transient transfection
T1 sequence (P22460 whole entry V512L, the tested form may be a part): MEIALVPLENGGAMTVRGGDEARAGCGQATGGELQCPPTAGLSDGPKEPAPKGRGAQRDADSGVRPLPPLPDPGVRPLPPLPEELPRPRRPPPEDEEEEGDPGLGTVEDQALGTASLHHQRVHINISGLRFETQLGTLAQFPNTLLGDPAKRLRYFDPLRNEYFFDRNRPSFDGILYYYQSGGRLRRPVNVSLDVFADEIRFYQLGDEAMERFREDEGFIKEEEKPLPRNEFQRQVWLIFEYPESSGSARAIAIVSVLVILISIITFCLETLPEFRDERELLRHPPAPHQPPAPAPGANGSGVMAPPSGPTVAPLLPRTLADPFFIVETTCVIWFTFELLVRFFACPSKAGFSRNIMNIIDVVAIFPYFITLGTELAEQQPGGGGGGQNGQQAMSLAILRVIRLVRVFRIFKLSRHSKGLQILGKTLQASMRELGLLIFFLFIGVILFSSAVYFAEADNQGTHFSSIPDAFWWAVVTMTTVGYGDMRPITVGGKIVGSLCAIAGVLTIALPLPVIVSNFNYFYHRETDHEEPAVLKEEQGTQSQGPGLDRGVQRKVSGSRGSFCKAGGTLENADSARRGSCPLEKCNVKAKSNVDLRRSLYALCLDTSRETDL
Text: (§1) Stable lines of HEK293 cells expressing Kv1.5, or transient transfection of mutant Kv1.5 channels were used in all experiments. Primers to generate mutant channels were synthesized by Integrated DNA Technologies, Inc. (Coralville, Iowa, USA), and mutants were generated using the Stratagene Quikchange kit (Stratagene, Calif., USA). The presence of the mutation was confirmed by DNA sequencing, and because of the size of the WT Kv1.5 clone, only the sequenced region harboring the targeted nucleotides was subcloned as a fragment back into full-length Kv1.5. Transient transfections were performed with HEK 293 cells plated at 20-30% confluency on sterile coverslips in 25 mm Petri dishes one day prior to transfection. 0.1-4 μg of ion channel DNA was incubated with 1 μg of eGFP DNA (to enable detection of transfected cells) and 2 μl of lipofectamine 2000 (Invitrogen) in 100 μl of Opti-MEM. This was added to the cells for overnight incubation after washing the media with 900 μl of MEM with 10% FBS.
(§2) The cells were grown in Minimal Essential Medium (MEM) at 37° C. in an air/5% CO2 incubator. Media contained 10% bovine serum and 0.5 mg/ml geneticin for stable lines. On the day before recording, stably-expressing cells were washed with MEM, treated with trypsin/EGTA for one minute and plated on 25 mm^2 coverslips. All cell culture supplies were obtained from Invitrogen (Mississauga, ON, Canada).
(§3) Control bath solution contained (in mM): 5 KCl, 135 NaCl, 2.8 sodium acetate, 1 MgCl2, 10 HEPES and 1 CaCl2, adjusted to pH 7.4 with NaOH. Patch pipettes contained (in mM): 130 KCl, 5 EGTA, 1 MgCl2, 10 HEPES, 4 Na2ATP, and 0.1 GTP, adjusted to pH 7.2 with KOH. […]
(§4) Coverslips with adherent cells plated on the surface were placed in a superfusion chamber (volume 300 μl) containing the control bath solution at 22° C. […] To assess drug block, half-log escalating concentrations of drug were added to the flowing bath solution and current traces were recorded with 400 ms depolarizing pulses to +60 mV at a frequency of 0.1 Hz. […]

[2] = biological target: T2, Kv1.5 V481L mutant channel (Homo sapiens, UniProt P22460, V481L); test: as above; format: cell-based; settings: 10 μM vernakalant
T2 construct: subcloned as a fragment back into full-length Kv1.5; expressed in transfected cells; host or cells: HEK293, transient transfection
T2 sequence (P22460 whole entry V481L, the tested form may be a part): as the sequence (P22460 whole entry V512L, the tested form may be a part) above, with V481L, L512V counted along it
Text: as §1, §2, §3, §4

[3] = biological target: T3, Kv1.5 A509G mutant channel (Homo sapiens, UniProt P22460, A509G); test: as above; format: cell-based; settings: 10 μM vernakalant
T3 construct: subcloned as a fragment back into full-length Kv1.5; expressed in transfected cells; host or cells: HEK293, transient transfection
T3 sequence (P22460 whole entry A509G, the tested form may be a part): as the sequence (P22460 whole entry V512L, the tested form may be a part) above, with A509G, L512V counted along it
Text: as §1, §2, §3, §4

atrial fibrillation = settings: intravenous; within 90 min of infusion; phase II and III trials; cited from earlier work

With `COc1ccc(CCO[C@@H]2CCCC[C@H]2N2CC[C@@H](O)C2)cc1OC` [Vernakalant, 3-Pyrrolidinol, 1-[(1R,2R)-2-[2-(3,4-dimethoxyphenyl)ethoxy]cyclohexyl]-,hydrochloride, (3R)] the “Fractional Block ± SEM” value [1] was 0.56 ± 0.04, the “Fractional Block ± SEM” value [2] was 0.36 ± 0.03 and the “Fractional Block ± SEM” value [3] was 0.33 ± 0.07. The “overall rate of conversion of AF to sinus rhythm” value (atrial fibrillation) was roughly 52%.
